Test results reported in patent US12084472B2 (Ardelyx, Inc., priority 2015, dated 2024).

target: T1, human TGR5 (Homo sapiens, UniProt Q8TDU6); assay: Cell-based TGR5 assay (cAMP generation, HTRF); conditions: HEK293 cells stably transfected with human TGR5; cAMP by HTRF; 30 minutes at 37° C.; read-out: pEC50 Human TGR5 (converted)
T1 construct: expressed in transfected cells; host or cells: HEK293
T1 sequence (Q8TDU6 1-330): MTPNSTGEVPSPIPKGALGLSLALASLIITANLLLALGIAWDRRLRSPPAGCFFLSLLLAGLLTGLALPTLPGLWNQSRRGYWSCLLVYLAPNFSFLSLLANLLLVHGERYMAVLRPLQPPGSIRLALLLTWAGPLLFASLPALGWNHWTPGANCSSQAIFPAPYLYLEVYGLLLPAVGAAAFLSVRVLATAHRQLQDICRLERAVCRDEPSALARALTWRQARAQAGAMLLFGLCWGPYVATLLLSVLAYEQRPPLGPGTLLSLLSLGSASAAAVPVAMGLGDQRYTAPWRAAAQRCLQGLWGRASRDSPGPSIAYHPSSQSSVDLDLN
Summary of the method: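 First, compounds in 3-fold serial dilution were placed in HBSS with 10 mM HEPES pH 7.4 and 0.5 mM IBMX. Next, human TGR5-expressing HEK293 cells were added and incubated 30 min at 37° C. Finally, cAMP was detected by HTRF and pEC50 derived by logistic fitting.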

Row | SMILES | EC50 [µM]
1 | O=C(O)CCCC(=O)N(CCCCc1cc(Cl)c(CNC2(c3cnccc3-c3ccccc3OC3CC3)CC2)cc1Cl)C[C@H](O)[C@@H](O)[C@H](O)[C@H](O)CO [Compound I-63, 4-[(4-[2,5-dichloro-4-[([1-[4-(2-cyclopropoxyphenyl)pyridin-3-yl]cyclopropyl]amino)methyl]phenyl]butyl) [(2S,3R,4R,5R)-2,3,4,5,6-pentahydroxyhexyl]carbamoyl]butanoic acid] | 0.126 to 1
2 | Cc1cc(COC2(c3cnccc3-c3ccccc3OC3CC3)CC2)c(Cl)cc1CCCCNC(=O)NC[C@H](O)[C@@H](O)[C@H](O)[C@H](O)CO [Compound I-65, 1-[4-[5-chloro-4-([1-[4-(2-cyclopropoxyphenyl)pyridin-3-yl]cyclopropoxy]methyl)-2-methylphenyl]butyl]-3-[(2S,3R,4R,5R)-2,3,4,5,6-pentahydroxyhexyl]urea] | < 0.1
3 | OC[C@@H](O)[C@@H](O)[C@H](O)[C@@H](O)CNCCCCc1cc(Cl)c(COC2(c3cnccc3-c3ccccc3OC3CC3)CC2)cc1Cl [Compound I-66, (2R,3R,4R,5S)-6-(4-(2,5-dichloro-4-((1-(4-(2-cyclopropoxyphenyl)pyridin-3-yl)cyclopropoxy)methyl)phenyl)butylamino)hexane-1,2,3,4,5-pentaol] | 0.126 to 1
4 | O=C(C1CCOCC1)N(CCCCc1cc(Cl)c(COC2(c3cnccc3-c3ccccc3OC3CC3)CC2)cc1Cl)C[C@H](O)[C@@H](O)[C@H](O)[C@H](O)CO [Compound I-67, N-(4-(2,5-dichloro-4-((1-(4-(2-cyclopropoxyphenyl)pyridin-3-yl)cyclopropoxy)methyl)phenyl)butyl)-N-((2S,3R,4R,5R)-2,3,4,5,6-pentahydroxyhexyl)tetrahydro-2H-pyran-4-carboxamide] | < 0.1
5 | CC(C)C(=O)N(CCCCc1cc(Cl)c(COC2(c3cnccc3-c3ccccc3OC3CC3)CC2)cc1Cl)C[C@H](O)[C@@H](O)[C@H](O)[C@H](O)CO [Compound I-69, N-{4-[2,5-dichloro-4-({1-[4-(2-cyclopropoxyphenyl)pyridin-3-yl]cyclopropoxy}methyl)phenyl]butyl}-2-methyl-N-[(2S,3R,4R,5R)-2,3,4,5,6-pentahydroxyhexyl]propanamide] | 0.126 to 1
6 | CCCC(=O)N(CCCCc1cc(Cl)c(COC2(c3cnccc3-c3ccccc3OC3CC3)CC2)cc1Cl)C[C@H](O)[C@@H](O)[C@H](O)[C@H](O)CO [Compound I-74, N-{4-[2,5-dichloro-4-({1-[4-(2-cyclopropoxyphenyl)pyridin-3-yl]cyclopropoxy}methyl)phenyl]butyl}-N-[(2S,3R,4R,5R)-2,3,4,5,6-pentahydroxyhexyl]butanamide] | 0.126 to 1
7 | COCCC(=O)N(CCCCc1cc(Cl)c(COC2(c3cnccc3-c3ccccc3OC3CC3)CC2)cc1Cl)C[C@H](O)[C@@H](O)[C@H](O)[C@H](O)CO [Compound I-75, N-(4-(2,5-dichloro-4-((1-(4-(2-cyclopropoxyphenyl)pyridin-3-yl)cyclopropoxy)methyl)phenyl)butyl)-3-methoxy-N-((2S,3R,4R,5R)-2,3,4,5,6-pentahydroxyhexyl)propanamide] | < 0.1
8 | COCCNC(=O)N(CCCCc1cc(Cl)c(COC2(c3cnccc3-c3ccccc3OC3CC3)CC2)cc1Cl)C[C@H](O)[C@@H](O)[C@H](O)[C@H](O)CO [Compound I-76, 1-{4-[2,5-dichloro-4-({1-[4-(2-cyclopropoxyphenyl)pyridin-3-yl]cyclopropoxy}methyl)phenyl]butyl}-3-(2-methoxyethyl)-1-[(2S,3R,4R,5R)-2,3,4,5,6-pentahydroxyhexyl]urea] | 0.126 to 1
9 | CNC(=O)N(CCCCc1cc(Cl)c(COC2(c3cnccc3-c3ccccc3OC3CC3)CC2)cc1Cl)C[C@H](O)[C@@H](O)[C@H](O)[C@H](O)CO [Compound I-79] | < 0.1
10 | O=CN(CCCCc1cc(Cl)c(COC2(c3cnccc3-c3ccccc3OC3CC3)CC2)cc1Cl)C[C@H](O)[C@@H](O)[C@H](O)[C@H](O)CO [Compound I-80, N-(4-(2,5-dichloro-4-((1-(4-(2-cyclopropoxyphenyl)pyridin-3-yl)cyclopropoxy)methyl)phenyl)butyl)-N-((2S,3R,4R,5R)-2,3,4,5,6-pentahydroxyhexyl)formamide] | < 0.1
11 | O=C([C@H](O)[C@@H](O)[C@H](O)[C@H](O)CO)N(CCCCO)CCCCc1cc(Cl)c(COC2(c3cnccc3-c3ccccc3OC3CC3)CC2)cc1Cl [Compound I-81, (2R,3S,4R,5R)-N-(4-(2,5-dichloro-4-((1-(4-(2-cyclopropoxyphenyl)pyridin-3-yl)cyclopropoxy)methyl)phenyl)butyl)-2,3,4,5,6-pentahydroxy-N-(4-hydroxybutyl)hexanamide] | < 0.1
12 | NS(=O)(=O)CCN(CCCCc1cc(Cl)c(COC2(c3cnccc3-c3ccccc3OC3CC3)CC2)cc1Cl)C(=O)[C@H](O)[C@@H](O)[C@H](O)[C@H](O)CO [Compound I-84, (2R,3S,4R,5R)-N-{4-[2,5-dichloro-4-({1-[4-(2-cyclopropoxyphenyl)pyridin-3-yl]cyclopropoxy}methyl)phenyl]butyl}-2,3,4,5,6-pentahydroxy-N-(2-sulfamoylethyl)hexanamide] | < 0.1

Other lines, results leading:

Row | EC50 [µM] | SMILES
13 | < 0.1 | O=C(NCCCCc1ccc(Cl)c(CNC2(c3cnccc3-c3ccccc3OC3CC3)CC2)c1)NC[C@H](O)[C@@H](O)[C@H](O)[C@H](O)CO [Compound I-64, 1-(4-[4-chloro-3-[([1-[4-(2-cyclopropoxyphenyl)pyridin-3-yl]cyclopropyl]amino)methyl]phenyl]butyl)-3-[(2S,3R,4R,5R)-2,3,4,5,6-pentahydroxyhexyl]urea]
14 | < 0.1 | CC(=O)N(CCCCc1cc(Cl)c(COC2(c3cnccc3-c3ccccc3OC3CC3)CC2)cc1Cl)C[C@H](O)[C@@H](O)[C@H](O)[C@H](O)CO [Compound I-68, N-{4-[2,5-dichloro-4-({1-[4-(2-cyclopropoxyphenyl)pyridin-3-yl]cyclopropoxy}methyl)phenyl]butyl}-N-[(2S,3R,4R,5R)-2,3,4,5,6-pentahydroxyhexyl]acetamide]
15 | 0.126 to 1 | O=C(CCS(=O)(=O)c1ccccc1)N(CCCCc1cc(Cl)c(COC2(c3cnccc3-c3ccccc3OC3CC3)CC2)cc1Cl)C[C@H](O)[C@@H](O)[C@H](O)[C@H](O)CO [Compound I-70, 3-(benzenesulfonyl)-N-{4-[2,5-dichloro-4-({1-[4-(2-cyclopropoxyphenyl)pyridin-3-yl]cyclopropoxy}methyl)phenyl]butyl}-N-[(2S,3R,4R,5R)-2,3,4,5,6-pentahydroxyhexyl]propanamide]
16 | < 0.1 | O=C(CO)N(CCCCc1cc(Cl)c(COC2(c3cnccc3-c3ccccc3OC3CC3)CC2)cc1Cl)C[C@H](O)[C@@H](O)[C@H](O)[C@H](O)CO [Compound I-71, N-{4-[2,5-dichloro-4-({1-[4-(2-cyclopropoxyphenyl)pyridin-3-yl]cyclopropoxy}methyl)phenyl]butyl}-2-hydroxy-N-[(2S,3R,4R,5R)-2,3,4,5,6-pentahydroxyhexyl]acetamide]
17 | < 0.1 | COCC(=O)N(CCCCc1cc(Cl)c(COC2(c3cnccc3-c3ccccc3OC3CC3)CC2)cc1Cl)C[C@H](O)[C@@H](O)[C@H](O)[C@H](O)CO [Compound I-72, N-{4-[2,5-dichloro-4-({1-[4-(2-cyclopropoxyphenyl)pyridin-3-yl]cyclopropoxy}methyl)phenyl]butyl}-2-methoxy-N-[(2S,3R,4R,5R)-2,3,4,5,6-pentahydroxyhexyl]acetamide]
18 | < 0.1 | CCC(=O)N(CCCCc1cc(Cl)c(COC2(c3cnccc3-c3ccccc3OC3CC3)CC2)cc1Cl)C[C@H](O)[C@@H](O)[C@H](O)[C@H](O)CO [Compound I-73, N-{4-[2,5-dichloro-4-({1-[4-(2-cyclopropoxyphenyl)pyridin-3-yl]cyclopropoxy}methyl)phenyl]butyl}-N-[(2S,3R,4R,5R)-2,3,4,5,6-pentahydroxyhexyl]propanamide]
19 | < 0.1 | O=C1O[C@H]([C@@H](O)[C@H](O)[C@H](O)CO)CN1CCCCc1cc(Cl)c(COC2(c3cnccc3-c3ccccc3OC3CC3)CC2)cc1Cl [Compound I-77, (5S)-3-{4-[2,5-dichloro-4-({1-[4-(2-cyclopropoxyphenyl)pyridin-3-yl]cyclopropoxy}methyl)phenyl]butyl}-5-[(1S,2R,3R)-1,2,3,4-tetrahydroxybutyl]-1,3-oxazolidin-2-one]
20 | < 0.1 | O=C1CCO[C@H]([C@@H](O)[C@H](O)[C@H](O)CO)CN1CCCCc1cc(Cl)c(COC2(c3cnccc3-c3ccccc3OC3CC3)CC2)cc1Cl [Compound I-78, (S)-4-(4-(2,5-dichloro-4-((1-(4-(2-cyclopropoxyphenyl)pyridin-3-yl)cyclopropoxy)methyl)phenyl)butyl)-2-((1S,2R,3R)-1,2,3,4-tetrahydroxybutyl)-1,4-oxazepan-5-one]
21 | < 0.1 | NC(=O)CN(CCCCc1cc(Cl)c(COC2(c3cnccc3-c3ccccc3OC3CC3)CC2)cc1Cl)C(=O)[C@@H](O)[C@@H](O)[C@H](O)[C@@H](O)CO [Compound I-82, (2S,3S,4R,5S)-N-(carbamoylmethyl)-N-{4-[2,5-dichloro-4-({1-[4-(2-cyclopropoxyphenyl)pyridin-3-yl]cyclopropoxy}methyl)phenyl]butyl}-2,3,4,5,6-pentahydroxyhexanamide]
22 | < 0.1 | O=C([C@H](O)[C@@H](O)[C@H](O)[C@H](O)CO)N(CCCCCCO)CCCCc1cc(Cl)c(COC2(c3cnccc3-c3ccccc3OC3CC3)CC2)cc1Cl [Compound I-83, (2R,3S,4R,5R)-N-{4-[2,5-dichloro-4-({1-[4-(2-cyclopropoxyphenyl)pyridin-3-yl]cyclopropoxy}methyl)phenyl]butyl}-2,3,4,5,6-pentahydroxy-N-(6-hydroxyhexyl)hexanamide]
